Experimental data taken from article PMC5071873, “The Effects of Puerarin on Rat Ventricular Myocytes and the Potential Mechanism” (Scientific Reports, 2016).
Like-named read-outs stand apart in the source and are kept apart here.

Columns and labels:
Format in all cases: cell-based
Kir2.3 = biological target: T1, Kir2.3 (Homo sapiens, UniProt P48050); assay: Whole-cell patch clamp of Kir2.3 currents (ramp voltage protocol) in transfected HEK-293 cells
T1 sequence (P48050 1-445): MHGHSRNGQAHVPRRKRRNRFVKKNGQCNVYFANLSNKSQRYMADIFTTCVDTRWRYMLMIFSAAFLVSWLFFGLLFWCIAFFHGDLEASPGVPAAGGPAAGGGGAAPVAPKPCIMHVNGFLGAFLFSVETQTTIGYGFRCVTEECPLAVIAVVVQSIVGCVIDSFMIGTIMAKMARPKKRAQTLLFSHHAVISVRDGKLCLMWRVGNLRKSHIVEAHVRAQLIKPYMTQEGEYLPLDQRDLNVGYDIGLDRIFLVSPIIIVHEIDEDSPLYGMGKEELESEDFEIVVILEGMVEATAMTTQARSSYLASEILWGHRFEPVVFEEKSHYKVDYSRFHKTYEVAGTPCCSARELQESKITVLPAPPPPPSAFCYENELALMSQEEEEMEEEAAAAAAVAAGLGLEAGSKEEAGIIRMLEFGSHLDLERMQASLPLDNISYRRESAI
Procedure: (§1) The Tyrode’s solution contained (mM): 126 NaCl, 5.4 KCl, 1.8 CaCl2, 1 MgCl2, 0.33 NaH2PO4, 10 HEPES and 10 glucose, pH 7.4 (adjusted with NaOH). The Ca^2+-free Tyrode’s solution was prepared by removing CaCl2 from the Tyrode’s solution. The Kreb’s solution used for cell storage contained (mM): 70 glutamic acid, 30 KCl, 15 taurine, 0.5 MgCl2, 10 KH2PO4, 0.5 EGTA, 10 HEPES, 10 glucose, and 1% albumin, pH 7.4 (adjusted with KOH). The enzyme solution used for the rat cardiomyocyte isolation contained 0.08 g/L collagenase (type II) and 1.0 g/L BSA in Kreb’s solution. For action potential recording on cardiomyocyte, the pipette solution contained (mM): 100 potassium aspartate, 30 KCl, 1 MgCl2, 5 Mg-ATP, 5 EGTA, 5 HEPES, pH 7.3 (adjusted with KOH); the Tyrode’s solution was used as the standard bath solution. For whole-cell recording of IKs on myocytes, the pipette solution contained (mM): 125 potassium aspartate, 20 KCl, 1 MgCl2, 5 Mg-ATP, 10 EGTA, 5 HEPES, pH 7.3 (adjusted with KOH); the bath solution contained (mM): 132 NaCl, 4 KCl, 1.8 CaCl2, 1.2 MgCl2, 10 HEPES, 5 glucose, pH 7.4 (adjusted with NaOH). […]
Cell suspensions were transferred into a chamber on the stage of a Nikon Eclipse Ti inverted microscope (Tokyo, Japan). […] The IK1 was calculated as the difference between the peak inward current and the holding current level. […]

Kv7.1 = biological target: T2, Kv7.1 (Homo sapiens, UniProt P51787); assay: Whole-cell patch clamp of Kv7.1 currents (voltage steps) in transfected HEK293 cells; conditions: for IC50: HEK293, non-linear Hill fit, n = 6 each point; for Kv7.1-tail current density / Kv7.1 current density: at 40 mV; for Kv7.1-tail current density: control 10.4 ± 0.6; for Kv7.1 current density: control 24.3 ± 1.1
T2 construct: expressed in transfected cells; host or cells: HEK293
Procedure: (§2) The Tyrode’s solution contained (mM): 126 NaCl, 5.4 KCl, 1.8 CaCl2, 1 MgCl2, 0.33 NaH2PO4, 10 HEPES and 10 glucose, pH 7.4 (adjusted with NaOH). The Ca^2+-free Tyrode’s solution was prepared by removing CaCl2 from the Tyrode’s solution. The Kreb’s solution used for cell storage contained (mM): 70 glutamic acid, 30 KCl, 15 taurine, 0.5 MgCl2, 10 KH2PO4, 0.5 EGTA, 10 HEPES, 10 glucose, and 1% albumin, pH 7.4 (adjusted with KOH). The enzyme solution used for the rat cardiomyocyte isolation contained 0.08 g/L collagenase (type II) and 1.0 g/L BSA in Kreb’s solution. For action potential recording on cardiomyocyte, the pipette solution contained (mM): 100 potassium aspartate, 30 KCl, 1 MgCl2, 5 Mg-ATP, 5 EGTA, 5 HEPES, pH 7.3 (adjusted with KOH); the Tyrode’s solution was used as the standard bath solution. For whole-cell recording of IKs on myocytes, the pipette solution contained (mM): 125 potassium aspartate, 20 KCl, 1 MgCl2, 5 Mg-ATP, 10 EGTA, 5 HEPES, pH 7.3 (adjusted with KOH); the bath solution contained (mM): 132 NaCl, 4 KCl, 1.8 CaCl2, 1.2 MgCl2, 10 HEPES, 5 glucose, pH 7.4 (adjusted with NaOH). 3 μM nifedipine and 5 μM E-4031 were used to block the calcium current and IKr, respectively. For whole-cell recording on HEK-293 cells, the pipette solution contained (mM): 140 KCl, 2 MgCl2, 10 HEPES, 0.1 EGTA, 4 K2-ATP, pH 7.3 (adjusted with KOH); the bath solution contained (mM): 120 NaCl, 5 KCl, 1.5 CaCl2, 1 MgCl2, 10 HEPES, 10 glucose, pH 7.4 (adjusted with NaOH). For single-channel recording, the pipette solution (extracellular) contained (mM): 145 KCl, 10 HEPES, 10 glucose, pH 7.4 (adjusted with KOH); the bath solution (intracellular) contained (mM): 145 KCl, 1.2 MgCl2, 10 HEPES, 0.1 EGTA, pH 7.38 (adjusted with KOH).
(§3) Cell suspensions were transferred into a chamber on the stage of a Nikon Eclipse Ti inverted microscope (Tokyo, Japan). The whole-cell recordings were performed using isolated single ventricular myocytes. Patch electrodes were pulled from a horizontal microelectrode puller (P-1000, Sutter Instrument Co, USA) and fire polished to final tip resistance of 4.0–8.0 MΩ when filled with internal solutions. Signals were amplified with an Axopatch 200B amplifier (Axon Instruments, USA) and filtered at 1 kHz. The pCLAMP 9.0 software was used to generate current and voltage clamp protocols, acquire data, and analyse the current traces. The whole-cell series resistance was compensated to more than 80%. All of the experiments were performed at room temperature (22 ± 1 °C). The whole-cell IK1 was elicited by a ramp voltage protocol from −140 to + 40 mV in 1 s, or at a 0 mV holding potential to test potentials from −140 to + 40 mV in 10 mV increments. The IK1 was calculated as the difference between the peak inward current and the holding current level. The whole-cell Kv7.1/IKs were elicited from a −30 mV holding potential to test potentials from −80 to + 40 mV in 10 mV increments.
(§4) Human Kir2.1 cDNA, Kir2.3 cDNA, Kv7.1 cDNA and KCNE1 cDNA, was cloned in Human Embryonic Kidney 293 cells, respectively. In some cases, Kv7.1 cDNA and KCNE1 cDNA were simultaneously cloned in Human Embryonic Kidney 293 cells.

[1] = biological target: T3, IKs channels (KCNQ and KCNE) (Homo sapiens, UniProt P51787); assay: Whole-cell patch clamp of IKs currents (Kv7.1 + KCNE1, voltage steps) in transfected HEK293 cells; conditions: for IC50: HEK293, non-linear Hill fit, n = 6 each point; for IKs-tail current density / IKs current density: at 40 mV; for IKs-tail current density: control 23.5 ± 1.2; for IKs current density: control 33.8 ± 3.2
T3 construct: expressed in transfected cells; host or cells: HEK293
Procedure: as §2, §3, §4

IKs channel = biological target: T4, IKs channel (Homo sapiens, UniProt P51787); assay: Single-channel inside-out patch clamp recording of IKs; conditions: puerarin 100 μM, inside-out, intracellular side
T4 construct: expressed in transfected cells; host or cells: HEK293
Procedure: as §1
Single-channel activity was recorded at a series of holding levels ranging from 10 mV of 50 mV. […] Single-channel events were listed and analysed by pclampfit 9.0 (single-channel search-in-analyse function). […]

In the case of `O=c1c(-c2ccc(O)cc2)coc2c([C@@H]3O[C@H](CO)[C@@H](O)[C@H](O)[C@H]3O)c(O)ccc12` [Puerarin, 8-c-glucoside of daidzein], the “effect on Kir2.3 currents at low concentrations” value (Kir2.3; 10 μM, 100 μM, 1 mM) is reported as “less effect”, the “Hill coefficient, inhibition of Kir2.3” value (Kir2.3; non-linear Hill fit) is reported as 0.984 and the IC50 (Kv7.1; read-out: IC50, inhibition of Kv7.1 at the peak currents) is reported as 36 µM. The IC50 (Kv7.1; read-out: IC50, inhibition of Kv7.1 at the tail currents) was 39.8 µM, the “Hill coefficient, inhibition of Kv7.1” value (Kv7.1; non-linear Hill fit) was 0.997 and the Kv7.1-tail current density (Kv7.1; puerarin 10 μM) was 8.8 ± 0.7 pA/pF. The Kv7.1 current density (Kv7.1; puerarin 10 μM) was 19.1 ± 1.0 pA/pF, the “effect on Kv7.1 current activated by isoproterenol, forskolin or 8-Br-cAMP” value (Kv7.1; puerarin 100 μM) was “antagonized such activation effect” and the Kv7.1-tail current density (Kv7.1; puerarin 100 μM) was 3.8 ± 0.6 pA/pF. The Kv7.1 current density (Kv7.1; puerarin 100 μM) was 7.9 ± 0.8 pA/pF, the Kv7.1-tail current density (Kv7.1; puerarin 1 mM) was 2.5 ± 0.9 pA/pF and the Kv7.1 current density (Kv7.1; puerarin 1 mM) was 6.1 ± 0.4 pA/pF. The Kv7.1-tail current density (Kv7.1; puerarin 10 mM) was 2.0 ± 0.5 pA/pF, the Kv7.1 current density (Kv7.1; puerarin 10 mM) was 4.8 ± 0.8 pA/pF and the IC50 ([1]; read-out: IC50, inhibition of IKs at the peak currents) was 55.6 µM. For the same compound, the IC50 ([1]; read-out: IC50, inhibition of IKs at the tail currents) was 59.8 µM, the “Hill coefficient, inhibition of IKs” value ([1]; non-linear Hill fit) was 0.989 and the IKs-tail current density ([1]; puerarin 10 μM) was 17.8 ± 1.5 pA/pF. It also gave an IKs current density ([1]; puerarin 10 μM) of 25.6 ± 2.4 pA/pF, an IKs-tail current density ([1]; puerarin 100 μM) of 9.7 ± 1.1 pA/pF and an IKs current density ([1]; puerarin 100 μM) of 15.7 ± 1.9 pA/pF. It also gave an IKs-tail current density ([1]; puerarin 1 mM) of 6.4 ± 1.2 pA/pF, an IKs current density ([1]; puerarin 1 mM) of 6.0 ± 1.3 pA/pF and an IKs-tail current density ([1]; puerarin 10 mM) of 5.2 ± 1.3 pA/pF. The IKs current density ([1]; puerarin 10 mM) was 5.4 ± 1.7 pA/pF and the “open probability of IKs channel” value (IKs channel) was “reduced”.
